Results on three compounds are retold here after patent US11319565B2, “Method for preparing lipoamino acids based on deep eutectic solvents” (Jiangnan University, priority 2019, dated 2022).

A short description of series [1]: CMC value determined by conductivity method. The class given is physicochemical. The following applies: aqueous solution. Here is the method:
The CMC value is determined by a conductivity method: The relationship between the conductivity of an ionic surfactant aqueous solution and the concentration is used to draw a ∧m-C^1/2 curve, and the CMC value is derived from the turning point of the curve.
∧m=K/C. The unit of ∧m is S·m^2/mol, and the unit of C is mol/L.
For a strong electrolyte, if the temperature is constant, the molar conductivity ∧m of the strong electrolyte solution has a linear relationship with the concentration of the solution c^1/2 in an extremely low concentration range. For a colloidal electrolyte, the conductivity and molar conductivity of a dilute solution change in the same way as the strong electrolyte.

A short description of series [2]: Substrate solubility in natural deep eutectic solvent (polarizing microscope). The following applies: in natural deep eutectic solvent C-Gly (choline chloride-glycerin), 60° C., 200 rpm. In kind it is physicochemical. On the procedure: 10 g of natural deep eutectic solvent (C-Gly) was accurately weighed and placed in a thermostatic shaking water bath at 60° C. After the temperature was constant, 10 mg of lauric acid was weighed and added thereto, and the mixture was shaken at 200 rpm for 30 min. Then a drop was taken out by a capillary and detected under a polarizing microscope. […] The final substrate solubility was calculated according to the following formula: S=mt×10/1000 (1).
Herein, S is the solubility and mt is the total addition amount of substrate.

In the case of `CCCCCCCCCCCC(=O)NCC(=O)O` [lauroyl glycine], in series [1], the CMC value is reported as 0.0044 mol/L.

Compound `CCCCCCCCCCCC(=O)O` [lauric acid] gave a solubility in series [2] of 24.98 g/100 g.

In turn, “Gemini lauroyl lysine [Gemini lauroyl amino acid]” gave a CMC value in series [1] of 0.0044 mol/L.
